Consider 4 compounds from US12502433B2, “Phosphonate-drug conjugates” (Massachusetts Eye and Ear Infirmary, priority 2016, dated 2025).

Like-named read-outs stand apart in the source and are kept apart here.

The subject of one series is spiral ganglion neurons. The series can be described thus: In vitro spiral ganglion neurite outgrowth. Format: cell-based, CBA/CaJ pups. The note with it: 400 nM, 48 hours. The protocol: Cochleae were harvested from P3-4 CBA/CaJ pups, after which the spiral ganglion neurons were sharply dissected free in a clump of cells, divided into three roughly equal sections, and plated with fibronectin on Dulbecco's Modified Eagle's medium (DMEM). Individual sections were then treated with media alone, 400 nM DHF, 400 nM RIS, or 400 nM DHF-RIS (Example 1) for 48 hours. After fixing and immunostaining with TUJI, the neurites were visualized under confocal microscopy and the neurite length quantified using ImageJ.

For another series, the system named is ribbon synapses. The series can be described thus: Ribbon synapse regeneration in organ of Corti explants after kainic acid. In kind it is cell-based. The settings on record: 400 nM after two hours kainic acid. As to the method:
To characterize the ability of DHF-RIS to regenerate ribbon synapses, a previously described organ of Corti explant system was used, wherein kainic acid was used to mimic excitotoxic damage to the ribbon synapse (see e.g., Wang et al, 7The Journal of Neuroscience: the official journal of the Society for Neuroscience, 2011, 31:7938-7949). Explants were treated with kainic acid for two hours to destroy synapses and then treated with 400 nM DHF, 400 nM RIS, or […] DHF-RIS (Example 1). Comparison was made with control samples not treated with kainic acid (KA−) and samples treated with kainic acid but no other drug (KA+). Synapses were detected by co-localization of CtBP2 and PSD95 as previously described and counted using the Amira program by an observer blinded to sample identity.

Another series relates to SG neurites. The series can be described thus: In vitro attraction of SG neurites after pre-binding to hydroxyapatite. In kind it is cell-based. As to the method: This assay was performed to confirm that the DHF moiety within DHF-RIS (Example 1) remained available to attract neurites from a distance after binding to hydroxyapatite, a mineral substitute for bone. In a modification of the data shown in FIG. 14A, a separate set of experiments was performed in which RIS-DHF was pre-bound to hydroxyapatite pellets. The pellets were washed with media, and plated along with SGN explants. To visualize the hydroxyapatite pellets, a small amount of 6-FAM-ZOL (Example 4) was added to all samples. It was observed that neurites traveled up to […] before ending on and overlapping with hydroxyapatite pellets, as shown in FIG. 14C.

Series [1] in a line: Hearing measurements (ABR, DPOAE) after systemic 6-FAM-ZOL. Format: in vivo, guinea pig.
Method: ABRs were recorded via subdermal needle electrodes (vertex—ventrolateral to the pinna of the test ear with a ground at the base of the tail). The CAPs electrode was located near the round window niche. Sound level was incremented in 5 dB steps, from ˜10 dB below threshold to 90 dB sound pressure level (SPL). Threshold for ABRs and CAPs was defined as the lowest stimulus level at which a repeatable wave could be identified in the response waveform.
Distortion product otoacoustic emissions (DPOAEs) were recorded for primary tones (f1, f2) over the same f2 range of frequencies, with a frequency ratio of 1.2, and with the level of the f2 primary 10 dB less than f1 level. Primaries were incremented together in 5 dB steps from −10 dB below threshold to 80 dB SPL. Ear-canal sound pressure was amplified and digitally sampled, FFTs were computed and averaged, and the 2f1-f2 DPOAE and surrounding noise floor were extracted. Iso-response contours were interpolated from plots of response amplitude vs. sound level. Threshold is defined as the f1 level required to produce a DPOAE of −5 dB SPL.
Distortion product otoacoustic emissions (DPOAEs) and auditory brainstem responses (ABRs) were measured in the systemic and round window membrane (RWM) delivery experiments. […] Hearing was measured at 2.78, 4, 5.6, 8, 12, 16, 24, and 32 kHz. […]
A short description of series [2]: Hearing measurements (ABR, DPOAE) after RWM 6-FAM-ZOL. In kind it is in vivo, guinea pig. The source says:
Acoustic stimuli were digitally generated and auditory responses were monitored using a National Instruments PXI stimulus generation/data acquisition system, which included a 24 bit digital I-O board (PXI-4461) and a 16 bit digital I-O board (PXI-6221) and the Eaton Peabody Laboratories Cochlear Function Test Suite. To elicit the auditory brainstem responses (ABRs) and the compound action potentials (CAPs), 5 ms tone pip stimuli were used with 0.5 ms rise/fall times (cosine squared) in alternating polarity at 33/s.
Acoustic stimuli were delivered via a custom acoustic assembly comprising two dynamic drivers as sound sources and a miniature electret microphone to measure sound pressure in situ (for a complete description, see e.g., http://www.masseyeandear.org/research/otolaryngology/investigators/laboratories/eaton-peabody-laboratories/ep1-engineering-resources). The response from the electrodes was amplified (10,000×), filtered (0.3-3 kHz bandpass), and averaged (512 samples at each frequency-level combination for ABRs and 128 samples for CAPs).
ABRs were recorded via subdermal needle electrodes (vertex—ventrolateral to the pinna of the test ear with a ground at the base of the tail). The CAPs electrode was located near the round window niche. […]
Distortion product otoacoustic emissions (DPOAEs) were recorded for primary tones (f1, f2) over the same f2 range of frequencies, with a frequency ratio of 1.2, and with the level of the f2 primary 10 dB less than f1 level. […]
Distortion product otoacoustic emissions (DPOAEs) and auditory brainstem responses (ABRs) were measured in the systemic and round window membrane (RWM) delivery experiments. […] Hearing was measured at 2.78, 4, 5.6, 8, 12, 16, 24, and 32 kHz.
The round window was visualized via a bullectomy approach and the beads were placed within the round window membrane (RWM) niche under direct microscopic visualization. […] DPOAEs and ABRs were first measured while animals were under anesthesia prior to bullectomy and again prior to analysis.

Series [3] can be described thus: Round window membrane (RWM) alginate bead delivery of 6-FAM-ZOL: cochlear fluorescence. In kind it is in vivo, guinea pig.
Method: All animals were therefore analyzed after maximal bisphosphonate deposition. […] Round window delivery animals were analyzed at 3 weeks to allow middle ear inflammation to subside prior to hearing analysis and to account for transit across the RWM.
The inner ears were harvested and stripped of soft tissue. All subsequent steps were performed in covered vials to prevent 6-FAM-ZOL bleaching. Specimens were fixed in an excess volume of neutral buffered formalin (10%, Fisher Scientific, Pittsburgh PA) at room temperature for 24 hours. The neutral buffered formalin was changed and fixation continued for another 24 hours. To prepare for resin embedding, specimens were dehydrated in an ascending series of ethanol (Fisher Scientific, 24 hr at 70%, 1 hr at 70%, 1 hr at 85%, 0.5 hr at 95%, 0.5 hr at 100%) followed by a wash in xylene (Fisher Scientific) and a 15 minute immersion in xylene. Specimens were cleared of xylene by a 1 hour infiltration in methyl methacrylate (MMA, Acrylosin soft, Dorn and Hart, Villa Park, IL) under vacuum. The MMA solution was changed and samples were infiltrated for 24 hours under vacuum. The infiltration solution was changed and the process was repeated for another 24 hours. […]
High-resolution images (1360 by 1024; 16 bit) were taken under FITC illumination (470/40 excitation, 4951p dicroic; 525/50 emission) using a Carl Zeiss Axiovert 200 Inverted Microscope. ImageJ (Rasband WS, ImageJ, United States National Institutes of Health, Bethesda, Maryland, USA, 1997-2014) was used to quantify the amount of fluorescence within the cochlear wall and modiolus at each half-turn, as shown in FIG. 1. Background fluorescence, defined as the average amount of fluorescence in an area of the resin block containing no sample, was subtracted from all measurements. Fluorescence remained stable over at least two weeks after grinding if samples were kept in the dark at room temperature. […] Confocal images were collected over a depth of 500 μm to generate maximum fluorescence images. […]
Series [4] is classed as in vivo.
Method: Male albino guinea pigs (Hartley strain; Charles River Laboratories, Inc., Wilmington, MA), each weighing approximately 350 g, were used. Nembutal (12.5 mg/kg intraperitoneally), Fentanyl (0.1 mg/kg intramuscularly), and Droperidol (5 mg/kg intramuscularly) were given for anesthesia. Supplemental doses of 0.7 mg/kg Fentanyl and 3.0 mg/kg Droperidol alternating with 6.25 mg/kg Nembutal were administered as needed. Animals were euthanized using pentobarbital (Fatal-Plus) at 390 mg/kg. The Massachusetts Eye and Ear Infirmary Institutional Animal Care and Use Committee approved all procedures.
All animals were therefore analyzed after maximal bisphosphonate deposition. Systemic delivery animals were analyzed at 48 hrs to account for potential differences between IP (our system) and IV (human) delivery.
The inner ears were harvested and stripped of soft tissue. All subsequent steps were performed in covered vials to prevent 6-FAM-ZOL bleaching. Specimens were fixed in an excess volume of neutral buffered formalin (10%, Fisher Scientific, Pittsburgh PA) at room temperature for 24 hours. The neutral buffered formalin was changed and fixation continued for another 24 hours. To prepare for resin embedding, specimens were dehydrated in an ascending series of ethanol (Fisher Scientific, 24 hr at 70%, 1 hr at 70%, 1 hr at 85%, 0.5 hr at 95%, 0.5 hr at 100%) followed by a wash in xylene (Fisher Scientific) and a 15 minute immersion in xylene. Specimens were cleared of xylene by a 1 hour infiltration in methyl methacrylate (MMA, Acrylosin soft, Dorn and Hart, Villa Park, IL) under vacuum. The MMA solution was changed and samples were infiltrated for 24 hours under vacuum. The infiltration solution was changed and the process was repeated for another 24 hours. Specimens were embedded in a solution of MMA containing 0.25% w/v (2.5 g/L) of perkadox-16 (Dom and Hart) for several hours under vacuum. After several hours, specimens were sealed in 50 mL polypropylene tubes and maintained at room temperature in a heat sink until fully cured (approximately 5 days).
Sections were prepared for fluorescent imaging by orienting and grinding the sample surface to the level of the mid-modiolus. Surfaces were polished on a 12″ table mounted rotary wheel using water and a progressively finer series of silicon carbide abrasive papers ending with 2400 grit (Buehler, Lake Bluff, 11).
High-resolution images (1360 by 1024; 16 bit) were taken under FITC illumination (470/40 excitation, 4951p dicroic; 525/50 emission) using a Carl Zeiss Axiovert 200 Inverted Microscope. ImageJ (Rasband WS, ImageJ, United States National Institutes of Health, Bethesda, Maryland, USA, 1997-2014) was used to quantify the amount of fluorescence within the cochlear wall and modiolus at each half-turn, as shown in FIG. 1. Background fluorescence, defined as the average amount of fluorescence in an area of the resin block containing no sample, was subtracted from all measurements. Fluorescence remained stable over at least two weeks after grinding if samples were kept in the dark at room temperature. Some images were also collected using a Leica TCS-SP2 confocal microscope. Confocal images were collected over a depth of 500 μm to generate maximum fluorescence images.
Mixed model analysis of variance was used to analyze the effect of dose on fluorescent response in the cochlea.
Series [5] can be described thus: Hearing measurements (CAP, DPOAE) after cochleostomy infusion. Format: in vivo, guinea pig.
Method: For the cochleostomy experiments, compound action potentials (CAPs) from the auditory nerve were substituted for ABRs.
A cochleostomy was performed approximately 0.5 mm distal to the round window via a bullectomy approach and the PTFE tubing was inserted into the scala tympani. Dental cement was used to seal the cochleostomy around the tubing. Infusion was performed at 1 μL over one minute, five times, spaced nine minutes apart. Control animals were treated with AP alone; 0.02× dosage animals were infused with 6-FAM-ZOL at 0.25 μg/μL; and 0.04× dosage animals were infused with 6-FAM-ZOL at 0.125 μg/μL+0.193 μg/μL zoledronate (total 4% of the 1× human zoledronate dose by molar weight). DPOAEs and CAPs were measured at time 0 (i.e., after cannula insertion and prior to infusion) and at 3 hrs. In independent experiments, three control animals were treated with AP alone, four animals were treated with AP containing 0.02× 6-FAM-ZOL, and three animals were treated with AP containing 0.04× 6-FAM-ZOL+zoledronate.
The nature of series [6]: Human temporal bone model: 6-FAM-ZOL delivery through the oval window. The protocol: 6-FAM-ZOL was synthesized as described in Example 4 and was dissolved in artificial perilymph (AP) at a concentration of 10 μg/μL. The content of AP (pH 7.4) was 130 mM NaCl, 3.5 mM KCl, 1.5 mM CaCl2, 5.5 mM glucose, and 20 mM HEPES.
Six freshly harvested cadaveric human temporal bones, which were obtained within 24 hours after death by the human temporal bone histopathology lab at Massachusetts Eye and Ear Infirmary, were used. The Pathology Quality Assurance Committee at Massachusetts General Hospital approved procurement of the specimens. The squamous and mastoid portions were drilled away, leaving the labyrinth. In three temporal bones, 1 μL of 10 μg/μL 6-FAM-ZOL was injected through the OW using a micropipette after lifting the stapes footplate. The footplate was then carefully laid back down. […]
Images (1024 by 1024; 8 bit) were collected using a Leica TCS-SP2 confocal microscope to generate maximum fluorescence images. To identify the surface of each specimen, the point of maximum fluorescence in the z-axis was first identified. A stack of images was then collected to a depth of 500 μm from the point of maximum fluorescence. […] ImageJ was used to quantify the amount of fluorescence associated with the labeled bisphosphonate within the lateral cochlear wall and the modiolus of the scala vestibuli and scala tympani at each half-turn, as shown in FIG. 11. […]

Series [7] in a line: 6-FAM-ZOL infusion into the scala tympani via cochleostomy: cochlear fluorescence. Format: in vivo, guinea pig.
Method: All animals were therefore analyzed after maximal bisphosphonate deposition. […] Intracochlear delivery animals were analyzed at 3 hours as this timepoint allowed for high levels of delivery while avoiding the potential long-term effects of a cochleostomy.
The inner ears were harvested and stripped of soft tissue. All subsequent steps were performed in covered vials to prevent 6-FAM-ZOL bleaching. Specimens were fixed in an excess volume of neutral buffered formalin (10%, Fisher Scientific, Pittsburgh PA) at room temperature for 24 hours. The neutral buffered formalin was changed and fixation continued for another 24 hours. To prepare for resin embedding, specimens were dehydrated in an ascending series of ethanol (Fisher Scientific, 24 hr at 70%, 1 hr at 70%, 1 hr at 85%, 0.5 hr at 95%, 0.5 hr at 100%) followed by a wash in xylene (Fisher Scientific) and a 15 minute immersion in xylene. Specimens were cleared of xylene by a 1 hour infiltration in methyl methacrylate (MMA, Acrylosin soft, Dorn and Hart, Villa Park, IL) under vacuum. The MMA solution was changed and samples were infiltrated for 24 hours under vacuum. The infiltration solution was changed and the process was repeated for another 24 hours. Specimens were embedded in a solution of MMA containing 0.25% w/v (2.5 g/L) of perkadox-16 (Dom and Hart) for several hours under vacuum. […]
High-resolution images (1360 by 1024; 16 bit) were taken under FITC illumination (470/40 excitation, 4951p dicroic; 525/50 emission) using a Carl Zeiss Axiovert 200 Inverted Microscope. ImageJ (Rasband WS, ImageJ, United States National Institutes of Health, Bethesda, Maryland, USA, 1997-2014) was used to quantify the amount of fluorescence within the cochlear wall and modiolus at each half-turn, as shown in FIG. 1. Background fluorescence, defined as the average amount of fluorescence in an area of the resin block containing no sample, was subtracted from all measurements. […] Confocal images were collected over a depth of 500 μm to generate maximum fluorescence images. […]
For series [8] the following is noted: humans, cited from earlier work.
[9] abbreviates: systemic 1× and 3× doses, 48 hrs.
Where [10] appears, read: three weeks after placement on the RWM.
The mark [11] stands for this setting: 1× systemic dose (0.185 mg/kg IP), 48 hrs.
[12] abbreviates: control, 1× and 3× systemic doses.
Where [13] appears, read: 0.02× cochleostomy infusion, 3 hrs, relative to control animals.

For `O=C(CCOCCOCCOCCOCCNC(=O)c1ccc(-c2cc(=O)c3ccc(O)c(O)c3o2)cc1)NCC(O)C[n+]1cccc(CC(O)(P(=O)(O)O)P(=O)(O)O)c1` (stereo not drawn) [DHF-RIS], in the series on spiral ganglion neurons, the “neurite outgrowth (neurite length)” value was “significant outgrowth”. The “regeneration of ribbon synapses” value with ribbon synapses was “significant regeneration compared to non-rescued explants, although less than native DHF”. Also, in the series with SG neurites (conjugate pre-bound to hydroxyapatite pellets), the “distance neurites traveled before ending on hydroxyapatite pellets” value is reported as “up to 400 μM”. Further, the “attraction of SG neurites after pre-binding to hydroxyapatite” value with SG neurites (in vitro) is listed as “available to attract SG neurites”.
Regarding `O=C(NCC(O)C[n+]1ccn(CC(O)(P(=O)(O)O)P(=O)(O)O)c1)c1ccc(C(=O)O)c(-c2c3ccc(=O)cc-3oc3cc(O)ccc23)c1` (stereo not drawn) [Example 6-FAM-ZOL], in series [1] (setting [9]), the ABR change result is reported as “No significant physiological changes” and the DPOAE change result is listed as “No significant physiological changes”. Also, the ototoxicity result in series [1] (systemic treatment) is on record as “non-ototoxic”. In [2] (local delivery onto the RWM), the ototoxicity result is recorded as “not ototoxic”. For the same compound, in [2] (setting [10]), the ABR shift entry was “no shifts” and the DPOAE shift result is on record as “no shifts”. Also, the cochlear fluorescence entry in series [3] (0.1× dose on RWM, 3 weeks) is “lower, but still detectable”. In series [3] (0.3× dose in alginate bead on RWM, 3 weeks), the “delivery throughout the lateral wall of the cochlea (fluorescence)” value is on record as “comparable to the 1× systemic dose”. The “levels of fluorescence in modiolus and lateral wall vs control” value in series [3] (RWM delivery 0.1× and 0.3×) was “significantly higher than the control”. Besides, in series [4] (1× systemic dose), the “average fluorescence stronger in tibiae compared to cochleae” value amounted to 50%. In [4] (setting [11]), the “average fluorescence above control, cochleae” value is recorded as “approximately 5,800 fluorescence units” and the “average fluorescence above control, tibiae” value was ~8,800 fluorescence units. Besides, in series [4] (setting [12]), the “fluorescence in lateral wall of cochleae” value is “increased with dose and the differences were statistically significant”; the fluorescence in tibiae entry was “dose-dependent and statistically significant”. In series [5] (setting [13]), the “additional CAP shift” value is reported as 10-15 dB and the “additional DPOAE shift” value is given as 10-15 dB. Also, the immediate ototoxicity entry in [5] (direct infusion into the cochlea) is on record as “without significant immediate ototoxicity”. In series [6] (1 μL of 10 μg/μL through the oval window, 4 days), the “fluorescent signal in bony walls of the vestibular capsule and the cochlea” value is “strong fluorescent signal”. Besides, the “effect of dose (6-FAM-ZOL vs artificial perilymph) on fluorescence, lateral wall and modiolus, scala vestibuli and scala tympani” value in [6] (all p<0.05) is “significant effect of dose”. The “total average fluorescence of the lateral wall vs control” value in [7] (0.2× dose (so in the source)) is on record as “significantly greater”. Further, in series [7] (0.2× treatment (so in the source)), the “total average fluorescence of the modiolus vs control” value is “significantly greater”. Also, in series [7] (2% (0.02×) of the 1× systemic dose, 3 hours), the “fluorescent signal along osseous spiral lamina of the modiolus and lateral wall of the cochlea” value is “bright fluorescent signal”.
As for `O=P(O)(O)C(O)(Cn1ccnc1)P(=O)(O)O` [zoledronate], in series [8] (after 24 hours), the “drug remaining in plasma” value is given as “less than 1%”. Moreover, the values for the plasma half-life in series [8] (first of two half-lives) and in [8] (second of two half-lives) were 12 min and 84 min, respectively.
Turning to `O=P(O)(O)C(O)(Cc1cccnc1)P(=O)(O)O` [RIS, reference compound], in the series on ribbon synapses, the “regeneration of ribbon synapses” value was “some ability to regenerate synapses”.
